In data set [1] the target is T1, CB1 (Homo sapiens, UniProt P21554).
T1 construct: expressed in transfected cells; host or cells: CHO-K1 (membranes)
As to the kind of experiment: Displacement of [3H]CP55940 in membranes of CHO-K1 cells over-expressing CB1. It counts as binding. To be noted: for Binding Selectivity using CP55940 Displacement: CB2 Ki over CB1 Ki.

For data set [2], the target named is T1, CB1. The experiment in a line: Radioligand displacement of [3H]SR141716 at CB1. It counts as binding. For orientation: In a radioligand displacement assay an active substance lowers the binding of a labelled ligand.
Another data set concerns the target T2, CB2 (Homo sapiens, UniProt P34972).
T2 construct: expressed in transfected cells; host or cells: CHO-K1 (membranes)
As to the kind of experiment: Displacement of [3H]CP55940 in membranes of CHO-K1 cells over-expressing CB2. The class given is binding. Here is the method:
All compounds were characterized by H^1 NMR and evaluated using a calcium mobilization assay. Each compound was pharmacologically characterized using a functional fluorescent CB1 activated Gαq16-coupled intracellular calcium mobilization assay in CHO-K1 cells as has been previously described and apparent affinity (Ke) values were determined. See Zhang et al., J. Med. Chem. 2010, 53, 7048, which is incorporated herein by reference. Further characterization of select compounds was performed using radioligand displacement of [3H]1 and equilibrium dissociation constant (Ki) values were determined. Selectivity of these compounds at CB1 versus CB2 was also determined by obtaining Ki values at either receptor using displacement of [3H]CP55940 in membranes of CHO-K1 cells over-expressing either receptor. Data reported are average values from 3-6 measurements.
Select compounds were chosen for further study in radioligand displacement assays using radiolabeled rimonobant, SR141716 ([^3H]1). […] Selectivity against the CB2 receptor was determined by comparing the compound displacement of radiolabeled CP55940, which is a cannabinoid known to act as a full agonist at both CB1 and CB2 receptors. In general, tested compounds were selective for CB1 over CB2.

Data set [3] concerns the target T1, CB1. As to the kind of experiment: CB1 activated Gαq16-coupled intracellular calcium mobilization assay in CHO-K1 cells (apparent affinity Ke). It counts as cell-based. (A change in cytosolic calcium serves as a functional read-out for many receptors and channels.)
A further data set concerns MDCK-MDR. As to the kind of experiment: MDCK-MDR transport (apical to basal). To be noted: Table 4. The class given is in vitro ADME.
[4] abbreviates: Table 4, read-out: Ki (nM) v. [3H] CP55940 at CB1.
[5] abbreviates: Table 4, read-out: Ki (nM) v. [3H] SR141716 at CB1.
[6] abbreviates: Table 4, read-out: Ki (nM) v. [3H] CP55940 at CB2.
Where [7] appears, read: Table 4, calcium mobilization, read-out: Ke (nM) at CB1.
[8] abbreviates: Table 5, read-out: Ki (nM) v. [3H] CP55940 at CB1.
The mark [9] stands for this setting: Table 5, read-out: Ki (nM) v. [3H] CP55940 at CB2.

Read-outs that look alike come from different tables or passages of the source.

Usually Ki stands for a dissociation constant, usually derived from enzyme kinetics or from competition with a known ligand.

T2 sequence (P34972 whole entry): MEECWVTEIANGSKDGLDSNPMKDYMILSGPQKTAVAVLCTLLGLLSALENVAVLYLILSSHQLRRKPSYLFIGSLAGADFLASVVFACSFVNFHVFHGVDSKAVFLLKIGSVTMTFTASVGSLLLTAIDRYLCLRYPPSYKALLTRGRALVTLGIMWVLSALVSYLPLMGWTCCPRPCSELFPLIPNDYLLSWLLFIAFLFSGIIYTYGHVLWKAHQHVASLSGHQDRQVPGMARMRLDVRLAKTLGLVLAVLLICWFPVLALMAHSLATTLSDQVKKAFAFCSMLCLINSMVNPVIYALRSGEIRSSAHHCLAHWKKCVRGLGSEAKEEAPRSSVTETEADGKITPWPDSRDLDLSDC
T1 sequence (P21554 whole entry): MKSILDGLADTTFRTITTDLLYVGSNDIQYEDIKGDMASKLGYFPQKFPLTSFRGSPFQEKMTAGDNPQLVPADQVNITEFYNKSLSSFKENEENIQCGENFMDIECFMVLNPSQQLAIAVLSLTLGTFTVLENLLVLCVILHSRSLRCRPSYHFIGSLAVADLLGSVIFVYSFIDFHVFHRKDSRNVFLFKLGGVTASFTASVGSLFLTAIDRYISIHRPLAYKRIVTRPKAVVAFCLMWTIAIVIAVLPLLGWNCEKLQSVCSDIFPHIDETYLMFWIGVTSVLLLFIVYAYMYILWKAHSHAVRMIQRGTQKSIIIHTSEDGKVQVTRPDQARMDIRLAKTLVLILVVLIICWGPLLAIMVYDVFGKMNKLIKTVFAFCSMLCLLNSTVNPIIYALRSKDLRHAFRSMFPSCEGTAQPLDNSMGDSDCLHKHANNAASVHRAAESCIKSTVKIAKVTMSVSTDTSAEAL

`Cc1c(C(=O)NCC2CCC(CNS(C)(=O)=O)CC2)nn(-c2ccc(Cl)cc2Cl)c1-c1ccc(Cl)cc1` (mixture of isomers): the Ki at CB1 [1] (Table 3, radioligand [3H]CP55940, read-out: Ki(μM) CB1 CP55940) worked out at 0.036 µM; on CB1 [2] (Table 3, radioligand [3H]SR141716, read-out: Ki(μM) CB1 SR141716), 0.008 µM; at CB2 (Table 3, radioligand [3H]CP55940, read-out: Ki(μM) CB2 CP55940), 0.96 µM.
`Cc1c(C(=O)N2CCC(C(N)=O)(c3ccccc3)CC2)nn(-c2ccc(Cl)cc2Cl)c1-c1ccc(Br)cc1` [Br, phenyl, CONH2, 1-{[5-(4-bromophenyl)-1-(2,4-dichlorophenyl)-4-methyl-1H-pyrazol-3-yl]carbonyl}-4-phenylpiperidine-4-carboxamide]: the “Binding Selectivity using CP55940 Displacement” value (“Binding Selectivity” for short) on CB1 [1] (Table 4) is recorded as 226.3. Also, the Ki on CB1 [1] (setting [4]) came to 0.0145 µM; on CB1 [2] (setting [5]) it was 0.00267 µM; at CB2 (setting [6]) it was 3.28 µM.
As for `CCNC1(C(N)=O)CCN(C(=O)c2nn(-c3ccc(Cl)cc3Cl)c(-c3ccc(Cl)cc3)c2C)CC1` [Cl, NHC2H5, C(O)NH2, 1-{[5-(4-chlorophenyl)-1-(2,4-dichlorophenyl)-4-methyl-1H-pyrazol-3-yl]carbonyl}-4-(ethylamino)piperidine-4-carboxamide], the values for the Ki on CB1 [1] (setting [4]), at CB1 [2] (setting [5]) and on CB2 (setting [6]) were 0.0784 µM, 0.0346 µM and 2.22 µM, respectively.
For `Cc1c(C(=O)N2CCC(C(N)=O)(c3ccccc3)CC2)nn(-c2ccc(Cl)cc2Cl)c1-c1ccc(Cl)cc1` [Cl, phenyl, C(O)NH2, 1-{[5-(4-chlorophenyl)-1-(2,4-dichlorophenyl)-4-methyl-1H-pyrazol-3-yl]carbonyl}-4-phenylpiperidine-4-carboxamide], the Kb at CB1 [3] stood at 0.45 nM. Moreover, the “Binding Selectivity” value at CB1 [1] (Table 4) came out at 1600.0. In addition, the Ki on CB1 [1] (setting [4]) turned out to be 0.00344 µM; on CB1 [2] (setting [5]), 0.00044 µM; on CB2 (setting [6]), 5.5 µM. Further, the “% MDCK-MDR transport (apical to basal)” value in the data set on MDCK-MDR amounted to 8.1 ± 11.5%.
For `Cc1c(C(=O)N2CCC(C(=O)NC(C)(C)C)(c3ccccc3)CC2)nn(-c2ccc(Cl)cc2Cl)c1-c1ccc(Cl)cc1` [Cl, phenyl, C(O)NH(t-butyl), N-(tert-butyl)-1-(5-(4-chlorophenyl)-1-(2,4-dichlorophenyl)-4-methyl-1H-pyrazole-3-carbonyl)-4-phenylpiperidine-4-carboxamide], the “Binding Selectivity” value at CB1 [1] (Table 4) turned out to be 421.6. The results for the Ki at CB1 [1] (setting [4]) and on CB2 (setting [6]) were 0.0199 µM and 8.39 µM, respectively. In the data set with MDCK-MDR, the “% MDCK-MDR transport (apical to basal)” value is on record as less than 1%.
With `Cc1c(C(=O)N2CCC(N)(c3ccccc3)CC2)nn(-c2ccc(Cl)cc2Cl)c1-c1ccc(Cl)cc1` [Cl, phenyl, NH2, 1-{[5-(4-chlorophenyl)-1-(2,4-dichlorophenyl)-4-methyl-1H-pyrazol-3-yl]carbonyl}-4-phenylpiperidin-4-amine], the Kb at CB1 [3] (setting [7]) stood at 485 nM. The “Binding Selectivity” value at CB1 [1] (Table 4) is given as 10.8. Besides, the figures for the Ki on CB1 [1] (setting [4]), at CB1 [2] (setting [5]) and on CB2 (setting [6]) were 0.104 µM, 0.0305 µM and 1.13 µM, respectively.
As to `CC(=O)NC1(c2ccccc2)CCN(C(=O)c2nn(-c3ccc(Cl)cc3Cl)c(-c3ccc(Cl)cc3)c2C)CC1` [Cl, phenyl, NHC(O)CH3, N-(1-{[5-(4-chlorophenyl)-1-(2,4-dichlorophenyl)-4-methyl-1H-pyrazol-3-yl]carbonyl}-4-phenylpiperidin-4-yl)acetamide], the Kb at CB1 [3] (setting [7]) was determined as 201 nM. Besides, at CB1 [1] (Table 4), the “Binding Selectivity” value came out at 3.4. The values for the Ki at CB1 [1] (setting [4]), at CB1 [2] (setting [5]) and on CB2 (setting [6]) were 0.0626 µM, 0.0137 µM and 0.214 µM, respectively.
In the case of `Cc1c(C(=O)N2CCC(NC(=O)NC(C)(C)C)(c3ccccc3)CC2)nn(-c2ccc(Cl)cc2Cl)c1-c1ccc(Cl)cc1` [Cl, phenyl, NHC(O)NH(t-butyl), 3-tert-butyl-1-(1-{[5-(4-chlorophenyl)-1-(2,4-dichlorophenyl)-4-methyl-1H-pyrazol-3-yl]carbonyl}-4-phenylpiperidin-4-yl)urea], on CB1 [1] (Table 4), the “Binding Selectivity” value is reported as 424.6. Besides, the values for the Ki at CB1 [1] (setting [4]), on CB1 [2] (setting [5]) and at CB2 (setting [6]) were 0.0471 µM, 0.0181 µM and no less than 20 µM, respectively. For the same molecule, in the data set on MDCK-MDR, the “% MDCK-MDR transport (apical to basal)” value was less than 1%.
As for `CCCCNC(=O)NC1(c2ccccc2)CCN(C(=O)c2nn(-c3ccc(Cl)cc3Cl)c(-c3ccc(Cl)cc3)c2C)CC1` [Cl, phenyl, NHC(O)NHC4H9, 3-butyl-1-(1-{[5-(4-chlorophenyl)-1-(2,4-dichlorophenyl)-4-methyl-1H-pyrazol-3-yl]carbonyl}-4-phenylpiperidin-4-yl)urea], at CB1 [3] (setting [7]), the Kb was found to be 0.41 nM. For the same molecule, at CB1 [1] (Table 4), the “Binding Selectivity” value stood at 178.1. Besides, the Ki on CB1 [1] (setting [4]) is 0.0155 µM; on CB2 (setting [6]) it was 2.76 µM.
Turning to `Cc1c(C(=O)N2CCC(NC(=O)NC(C)C)(c3ccccc3)CC2)nn(-c2ccc(Cl)cc2Cl)c1-c1ccc(Cl)cc1` [Cl, phenyl, NHC(O)NHCH(CH3)2, 1-(1-{[5-(4-chlorophenyl)-1-(2,4-dichlorophenyl)-4-methyl-1H-pyrazol-3-yl]carbonyl}-4-phenylpiperidin-4-yl)-3-(propan-2-yl)urea], the “Binding Selectivity” value at CB1 [1] (Table 4) is 364.0. In addition, the Ki on CB1 [1] (setting [4]) is 0.0135 µM; at CB2 (setting [6]), 4.91 µM. Also, in the data set with MDCK-MDR, the “% MDCK-MDR transport (apical to basal)” value is given as less than 1%.
Regarding `Cc1c(C(=O)N2CCC(NC(=O)OC(C)(C)C)(c3ccccc3)CC2)nn(-c2ccc(Cl)cc2Cl)c1-c1ccc(Cl)cc1` [Cl, phenyl, NHC(O)O(t-butyl), tert-Butyl N-(1-{[5-(4-chlorophenyl)-1-(2,4-dichlorophenyl)-4-methyl-1H-pyrazol-3-yl]carbonyl}-4-phenylpiperidin-4-yl)carbamate], the “Binding Selectivity” value at CB1 [1] (Table 4) was found to be 48.9. The Ki on CB1 [1] (setting [4]) turned out to be 0.0423 µM; on CB1 [2] (setting [5]), 0.00602 µM; at CB2 (setting [6]) it was 2.11 µM. The “% MDCK-MDR transport (apical to basal)” value in the data set on MDCK-MDR is reported as less than 1%.
For `Cc1c(C(=O)N2CCC(NS(C)(=O)=O)(c3ccccc3)CC2)nn(-c2ccc(Cl)cc2Cl)c1-c1ccc(Cl)cc1` [Cl, phenyl, NHSO2CH3, N-(1-{[5-(4-chlorophenyl)-1-(2,4-dichlorophenyl)-4-methyl-1H-pyrazol-3-yl]carbonyl}-4-phenylpiperidin-4-yl)methanesulfonamide] the same measures were 5.6, 0.00727 µM, 0.00328 µM, 0.041 µM and 3.14 ± 0.89%.
`Cc1c(C(=O)N2CCC(O)(c3ccccc3)CC2)nn(-c2ccc(Cl)cc2Cl)c1-c1ccc(Cl)cc1` [Cl, phenyl, OH, 1-{[5-(4-chlorophenyl)-1-(2,4-dichlorophenyl)-4-methyl-1H-pyrazol-3-yl]carbonyl}-4-hydroxy-4-phenylpiperidine]: at CB1 [1] (Table 4), the “Binding Selectivity” value was 12.3. For the same molecule, the Ki at CB1 [1] (setting [4]) is 0.0674 µM; on CB1 [2] (setting [5]) it was 0.00963 µM; at CB2 (setting [6]), 0.831 µM.
For `Cc1c(C(=O)N2CCC(O)(c3ccccc3)CC2)nn(-c2ccc(Cl)cc2Cl)c1-c1ccc(N(C)C)cc1` [N(CH3)2, phenyl, OH, 1-{[1-(2,4-dichlorophenyl)-5-[4-(dimethylamino)phenyl]-4-methyl-1H-pyrazol-3-yl]carbonyl}-4-phenylpiperidin-4-ol], on CB1 [3] (setting [7]), the Kb came out at 679 nM. Further, at CB1 [1] (Table 4), the “Binding Selectivity” value amounted to 1.0. In addition, the Ki was 0.384 µM on CB1 [1] (setting [4]), 0.0725 µM at CB1 [2] (setting [5]) and 0.4 µM at CB2 (setting [6]).
Turning to `CCNC(=O)N1CCC(NC(=O)c2nn(-c3ccc(Cl)cc3Cl)c(-c3ccc(Cl)cc3)c2C)CC1` [NHC2H5, 4-C-5-(4-chlorophenyl)-1-(2,4-dichlorophenyl)-4-methyl-1H-pyrazole-3-1-N-ethylpiperidine-1,4-diamido], the “Binding Selectivity” value at CB1 [1] (Table 5) amounted to 79.0. The results for the Ki at CB1 [1] (setting [8]) and on CB2 (setting [9]) were 0.167 µM and 13.2 µM, respectively.
Take `CCOC(=O)N1CCC(NC(=O)c2nn(-c3ccc(Cl)cc3Cl)c(-c3ccc(Cl)cc3)c2C)CC1` [OC2H5, Ethyl 4-[5-(4-Chlorophenyl)-1-(2,4-dichlorophenyl)-4-methyl-1H-pyrazole-3-amido]piperidine-1-carboxylate]: at CB1 [3], the Kb came to 28.6 nM. The “Binding Selectivity” value at CB1 [1] (Table 5) was determined as 551.1. Besides, the Ki on CB1 [1] (setting [8]) was determined as 0.0146 µM; at CB2 (setting [9]) it was 8.07 µM.

The record behind these values is patent publication US9133128B2, “Pyrazole derivatives as cannabinoid receptor 1 antagonists” (Research Triangle Institute, priority 2011, dated 2015).
